Each structure is given as a SMILES string.

In turn, `CC1=CC2C(CC1)C(c1ccc(F)cc1)=NC(=O)N2C(C)C` (stereo not drawn) showed a melting point of 154 to 158 °C.
In turn, `Cc1nc(NCc2ccccc2C)c2nc(-c3ccccc3)cc-2[nH]1` had a melting point of 277 to 281 °C.
In turn, `COCC(Cl)c1nc2c(C(F)(F)F)cccc2c(O)c1C(=O)Nc1nccs1` (stereo not drawn) came in with a melting point of 186 °C.
For `O=c1oc2ccccc2cc1CCN1CCC(Nc2nc3ccccc3n2Cc2ccc(F)cc2)CC1`, the melting point was 168 °C.
To `Cc1ccc(Cl)cc1-c1noc(CCC#Cc2ccccn2)n1` belongs 66 to 68 °C; to `CCn1ncc2c3ncn(Cc4ccccc4)c(=O)c3cnc21`, 198 to 200 °C; to `COCOc1ccc(C(=O)OC)c(OCc2ccc(Cl)cc2Cl)c1C`, 98.8 to 99 °C.
`Cn1ncnc1COc1nc2c(nnn2-c2ccccc2)c2ccccc12` showed a melting point of 188 to 190 °C.
To `O=C(NC(=O)N(SN1CCCCC1=O)c1ccc(Oc2ccc(C(F)(F)F)cc2Cl)cc1F)c1c(F)cccc1F` belongs 139 to 141 °C; to `CCOC(=O)c1nccc2c(C)c3c(cc12)c1cc(OC)ccc1n3CC`, 149 °C; to `COCc1c(O)ccc2c1CCCC2=O`, 142 to 143 °C.
In the case of `NC(=O)NC[C@@H]1CCCc2cc(S(=O)(=O)c3cccc(F)c3)cc(F)c21`, the melting point amounted to 194 °C.
Under `C=CC(=O)OCC1(COC(=O)C=C)c2ccccc2-c2ccccc21` stands 73 to 75 °C; under `O=C1C(=O)N(Cc2ccc(O)cc2)c2ccc(S(=O)(=O)N3CCC[C@H]3COc3ccccc3)cc21`, 170 to 172 °C.
Compound `Nc1c2c(nc3ccccc13)CCc1cn(Cc3ccccc3)nc1-2` yielded a melting point of 206 to 207 °C.
To `CCOC(=O)Nc1ccc(OCc2ccc(Cl)cc2)cc1[N+](=O)[O-]` belongs 122 °C; to `CC(CO)NC(=O)C(NC(=O)OCc1ccccc1)C(Cc1ccccc1)C(=O)O` (stereo not drawn), 110 to 111 °C.
`CCCCCCCCCCCCCCCCCCOC(=O)c1ccc(CBr)cc1` gave a melting point of 53 to 55 °C.
`CCCC(=O)Nc1n[nH]c2cc(-c3ccc(O)cc3)c(-c3ccccc3)cc12`: the melting point is 220 °C.
In turn, `CCOC(=O)Cc1ccc(NC(=O)C(COc2ccccc2)NS(=O)(=O)c2ccc(I)cc2)cc1` (racemic) gave a melting point of 178 to 180 °C.
For `Nc1ccc2nc3c(nc2c1)CCCC3`, the melting point lay in the range of 150 to 152 °C.
`COc1ccc2[nH]c3cc(-c4ccccc4-c4ccccc4)c4c(c3c2c1)C(=O)NC4=O` gave a melting point of 220 to 223 °C.
In the case of `NC(=O)c1ccc([N+](=O)[O-])c(N2CC2)c1`, the melting point was 223 to 224 °C.
The compound `COc1ccc(C=O)cc1C(C)(C)C` came in with a melting point of 52 °C.
Take `O=C(Nc1nnn[nH]1)c1cnc2sc3ccccc3n2c1=O`: the melting point lay within 330 to 332 °C.
To `CC1(C)CC(S(C)(=O)=O)=NO1` belongs 82 to 84 °C; to `Clc1nc2cc(Br)c(Br)c(Br)c2[nH]1`, 263 to 266 °C; to `Cc1oc(-c2ccccc2)nc1COc1ccc(/C=C/CO)cc1`, 134 to 135 °C.
Turning to `CNC(=O)n1cc(F)cnc1=O`, the melting point came to 166 °C.
The compound `CCOCCn1c(N2CCCN(CCC3(c4cccc(Cl)c4)CCN(C(=O)c4cc(OC)c(OC)c(OC)c4)C3)CC2)nc2ccccc21` (stereo not drawn) showed a melting point of 66 to 78 °C.
In turn, `COC(=O)C1=CCC(C#N)(c2ccc(OC)c(OC3CCCC3)c2)CC1` (stereo not drawn) yielded a melting point of 128 to 129 °C.
Under `CCN(C)c1nc2cc(NC(=O)c3c(C(=O)N4CCOCC4)cnn3C)ccn2n1` stands 167 to 169 °C; under `Oc1ccc(Cc2cnc3c(-c4cc(-c5ccccc5)cs4)cnn3c2O)cc1`, 287 to 293 °C.
With `O=C1C=C(Br)C(=CBr)O1`, the melting point fell in the range of 97 to 98 °C.
Consider `O=C(Nc1ccc(Oc2ccc(C(=O)N3CCC(C(=O)N4CCN(Cc5ccc6c(c5)OCO6)CC4)CC3)cc2)nc1)c1ccc(Cl)c(Cl)c1`, for which the melting point fell in the range of 236 to 238 °C.
To `CC(C)Oc1ccc(-c2cccs2)cc1C=O` belongs 186 to 187 °C.
For the compound `COc1ncccc1-c1cccc(OC2SCC(OC(C)=O)C(OC(C)=O)C2OC(C)=O)c1` (stereo not drawn), the melting point came out at 179 °C.
Under `COC(=O)CN1CCN(C(=O)OC(C)(C)C)C(Cc2ccc(OCc3ccccc3)cc2)C1=O` (stereo not drawn) stands 84 to 87 °C.
Under `S=C(Nc1ccc(Sc2ccc3ccccc3n2)cc1)Nc1ccc(Cl)c(Cl)c1` stands 125 to 126 °C.
In the case of `CC1(c2cccc(Cl)c2)OC(C(=O)O)Oc2ccc(Cl)cc21` (stereo not drawn), the melting point came to 131 °C.
Under `COc1cccc(S(=O)(=O)Nc2ccc(Cl)nc2I)c1` stands 154 °C; under `COC(=O)C1(C(=O)O)CCc2cc(C3CCCCCC3)ccc21` (stereo not drawn), 140 to 141 °C.
Under `Clc1cc(Cl)c2c(c1)CCC(N1CCCC1)=C2` stands 84.5 to 85.5 °C; under `COc1ccc(CCNC(=O)Nc2ccccc2CCc2cc(C(C)(C)C)c(O)c(C(C)(C)C)c2)cc1`, 148 to 149 °C.
Under `CC1CN(Cc2ccccc2)CC1=NO` (stereo not drawn) stands 85 to 94 °C.
For the compound `CCC(C)(C)OC(=O)NC(C)(Cc1c[nH]c2ccccc12)C(=O)NC(Cc1cccs1)C(N)=O` (stereo not drawn), the melting point was 187 to 192 °C.
Under `COc1ccc(S(=O)(=O)N(C(=O)c2snc(Cl)c2Cl)c2ccc(Cl)cc2)cc1` stands 154 to 158 °C; under `CC(=CC(=O)c1ccc(Cl)cc1)N(C)C`, 103 to 105 °C.
To `CCNc1cccnc1N1CCN(C(=O)c2ccc(C(=O)N3CCN(CCO)CC3)cc2)CC1` belongs 152 to 153 °C; to `NC(=O)CNC(=O)c1cccc(-c2cccc3cc(Cc4cc(F)cc(Cl)c4)sc23)n1`, 200 to 201 °C; to `COc1cc2c(c3c1OC(C)(C)C3)C(c1cccc(OCC(N)=O)c1)=NC(C)(C)C2`, 172 to 174 °C.
Take `COC(=O)c1cc(CC#N)cc(CC#N)c1`: the melting point lay in the range of 90 to 92 °C.
Under `Cn1c(C(F)(F)F)cc(=O)n(-c2cc(OCC#CCOc3ccccc3)c(Cl)cc2F)c1=O` stands 142 to 144 °C; under `COc1ccc(-c2c(CC(=O)O)c(-c3ccccc3)nn2-c2ccccc2)cc1`, 160 to 163 °C.
`Nc1nc(N)c(-c2cccc(Cl)c2Cl)c(CO)n1`: the melting point is 173 to 176 °C.
As to `COc1cccc(-c2ccc3c(c2)C(C)(C(F)(F)F)OC(=O)N3)c1` (stereo not drawn), the melting point was in the range of 178 to 179 °C.
As to `NC(=O)c1ccc(CCCNCC(O)c2ccccc2)cc1` (stereo not drawn), the melting point fell in the range of 106 to 108 °C.
Consider `CCCc1c(OCCCOc2ccc3c(=O)cc(C(=O)OC)oc3c2CCC)ccc(C(C)=O)c1O`, for which the melting point was in the range of 113 to 115 °C.
Under `Cc1cc(N)nc(CCc2nc3cc(-c4cccc(O)c4)cnc3[nH]2)c1` stands 162 °C.
On to `C=CCNc1nc(N2CCc3ccccc3CC2)c(C#N)c(=O)n1CC=C`, for which the melting point lay in the range of 181 to 182 °C.
Take `CCC(=CC#N)c1ccc2c(c1)C1(CCCCC1)OC(=O)N2`: the melting point was 173 to 174 °C.
Under `COc1ccc(N2C(=O)C3=C(CCCC3)C2CC(=O)O)cc1` (stereo not drawn) stands 203 to 204 °C; under `O=C(c1ccc(Cl)cc1)c1cc(-c2ccc(Cl)cc2)c(N2CCOCC2)s1`, 145 to 149 °C; under `CC1(C)CC(=O)Nc2cc3nc(-c4ccc(OS(C)(=O)=O)cc4)[nH]c3cc21`, 209 to 215 °C.
To `COc1ccc(Cc2nc(NCCO)c3c(C)c(C#N)sc3n2)cc1OC` belongs 149 to 151 °C; to `O=C1CN(c2ccc(Cl)cc2)C(=O)N1S(=O)(=O)c1ccc(Cl)cc1`, 239 to 240 °C; to `Cc1ccc(S(=O)(=O)NOC(C)C)cc1`, 104 °C.
`COC(=O)c1cnc(CO)n1C(c1ccccc1)c1ccccc1` yielded a melting point of 160 °C.
Under `CN(Cc1ccccc1)Cc1cnc(NC(=O)C(Cc2ccc(F)cc2)c2ccc(S(C)(=O)=O)cc2)cn1` (stereo not drawn) stands 99 to 100 °C; under `CCOC(=O)c1c(S(N)(=O)=O)nc2sccn12`, 164 to 166 °C.
Under `CCOc1cc(-c2cc(C(F)(F)F)n3ncc(C(=O)Nc4cc(S(N)(=O)=O)sc4Cl)c3n2)ccc1C(F)(F)F` stands 281 °C; under `C[C@H]1C[C@@](O)(c2cccc(Sc3ccc4c(c3)CC(=O)N4C)c2)CCO1`, 110 to 111 °C; under `CCCCCCCCCCCCCCCCCCOC(=O)C1CCC2OC2C1` (stereo not drawn), 32 to 34 °C.
Under `N#Cc1ccc(N2C(=O)C3C(O)CCCN3C2=O)c2ccccc12` (stereo not drawn) stands 243 °C; under `CCOC(=O)c1[nH]c(C)c(C)c1OCCCCl`, 60 to 63 °C.
Compound `COC(=O)CCCCCOc1ccc(NC(=O)COCc2ccccc2)cc1` gave a melting point of 46 to 49 °C.
To `COc1cc(C2c3cc4c(cc3C(O)CC2C(=O)O)OCO4)cc(OC)c1OC` (stereo not drawn) belongs 181 to 182 °C; to `Cn1ccnc1SCC(=O)C12CC3CC(CC(C3)C1)C2`, 65 to 69 °C; to `CC1C(=O)N(CC(=O)CCc2ccccc2)C1S(=O)Cc1ccccc1` (stereo not drawn), 87 to 94 °C.
With `O=C(Nc1nc(-c2ccc(OC(F)F)cc2)cs1)C1CC1`, the melting point was in the range of 202 to 203 °C.
To `COc1cc2c(cc1OCc1ccccc1)C1Cc3c(Cl)cc(OC)c(OC(=O)c4ccccc4)c3CN1CC2` (stereo not drawn) belongs 170 to 172 °C; to `O=S(=O)(NCCc1cccnc1)c1ccc(Cl)cc1`, 143 to 145 °C.
To `CC(=O)c1cccc(Nc2c3ccccc3nc3occc23)c1` belongs 158 to 159 °C; to `Cc1ccc2c(c1)c(=O)c1c(cnn1C)n2CC#N`, 214 to 219 °C.
`COc1cc(C)ccc1S(=O)(=O)O` registered a melting point of 92 to 94 °C.
To `O=C(Nc1ccc(C(F)(F)F)cc1)C1=NN(c2ccc(Cl)c(Cl)c2)C(c2ccc(F)cc2)C1` (stereo not drawn) belongs 242 to 243 °C.
To `O=C(OCCl)n1c(-c2cscn2)nc2ccccc21` belongs 143 to 144 °C; to `NC(=O)c1cc2c(C=Cc3ccccc3)cncc2s1`, 257 to 258 °C.

The melting point is the temperature, or range, at which the solid turns liquid.
